From patent US20050255178A1, “Enhancing the effectiveness of an inhaled therapeutic gas” (priority 2004, published 2005)

Key:
awake lambs = assay: U-46619-induced pulmonary hypertension in awake lambs: hemodynamics, gas exchange, cGMP release; assay type: in vivo
Description: In awake lambs instrumented with vascular catheters and a tracheostomy tube, the thromboxane analog U-46619 was infused intravenously to increase mean pulmonary arterial pressure (PAP) to 35 mm Hg. After a stabilization period, seven animals received an intravenous infusion of BAY 41-2272 (Alexis Biochemicals, Lausen, Switzerland) at 0.03, 0.1, and 0.3 mg·kg^−1·h^−1 administered for 30 minutes each. In another eight animals, inhaled NO (2, 10, and 20 ppm) was administered in random order for 10 minutes each followed by 15 minute NO-free periods. An intravenous infusion of BAY 41-2272 (0.1 mg·kg^−1·h^−1) was then started. After increasing the infusion of U-46619 to maintain PAP at 35 mmHg, NO was inhaled as before BAY 41-2272. In an additional eight lambs, which received an intravenous infusion of the NO synthase inhibitor, L-NAME (25 mg/kg+5 mg·kg^−1·h^−1), together with U-46619, NO was inhaled before and during the infusion of BAY 41-2272.
Data were analyzed using repeated measures ANOVA followed by Dunnett adjustment. A p<0.05 was considered statistically significant.

[1] = system: U-46619-induced pulmonary vasoconstriction; assay: CO inhaled alone or in combination with BAY 41-2272 during U-46619-induced pulmonary vasoconstriction; assay type: in vivo
Description: Systemic hemodynamics, lung gas exchange, and transpulmonary cGMP release were also unchanged by CO inhalation. Arterial concentrations of carboxyhemoglobin gradually rose from 1.0±0.2% to 4.7±0.4% (P<0.01) and from 1.4±0.1% to 5.2±0.2% (P<0.01), respectively, after breathing 500 ppm CO alone or in combination with BAY 41-2272.

[2] = system: mouse model of pulmonary hypertension; assay: Mouse model of pulmonary hypertension (U46619): pulmonary and systemic arterial pressures; assay type: in vivo, mice
Description: A mouse model of pulmonary hypertension was used to examine the combined effects of YC-1 and inhaled NO. Three mice (average weight 25 g) were anesthetized, their chest opened, catheters were placed in the carotid and pulmonary arteries, and pulmonary and systemic arterial pressures were recorded (FIG. 4). U46619, a thromboxane analogue was administered intravenously to induce pulmonary vasoconstriction. NO (4 parts per million) was added to the inspired gas, and pulmonary vasodilation was measured. Thereafter, NO inhalation was discontinued, and the duration of the pulmonary vasodilator effect was measured.
YC-1 was administered as boluses over one minute (10, 50 and 100 ug), and both pulmonary artery pressure and systemic blood pressure were measured. Thereafter, YC-1 was administered as an infusion (5 ug/min), and the rate of U46619 infusion was increased (2- to 3-fold) to re-establish pulmonary vasoconstriction. The pulmonary vasodilator response to breathing 4 ppm NO was measured, and duration of pulmonary vasodilation after discontinuing NO was assessed.

[3] = BAY 41-2272 0.1 mg·kg^−1·h^−1, L-NAME 25 mg/kg+5 mg·kg^−1·h^−1 iv, n=8
[4] = BAY 41-2272 0.1 mg·kg^−1·h^−1 iv with inhaled NO, P<0.05
[5] = BAY 41-2272 infusion with NO inhaled at 10 and 20 ppm
[6] = BAY 41-2272 infusion with NO inhaled at 10 and 20 ppm, P<0.05 vs. baseline PH
[7] = BAY 41-2272 iv infusion 0.03, 0.1, 0.3 mg·kg^−1·h^−1, 30 min each, n=7
[8] = during BAY 41-2272 infusion, inhalation of 10 and 20 ppm NO, P<0.01 vs. baseline PH
[9] = inhaled NO alone at 20 ppm, P<0.05
[10] = YC-1 boluses over one minute (10, 50 and 100 ug)

In the case of Nc1nc(-c2nn(Cc3ccccc3F)c3ncccc23)ncc1C1CC1 [BAY 41-2272, 3-(4-amino-5-cyclopropylpyrimidine-2-yl)-1-(2-fluorobenzyl)-1H-pyrazolo[3,4-b]pyridine], the “pulmonary vasodilation induced by BAY 41-2272 in presence of L-NAME” value (awake lambs; [3]) is reported as “but not pulmonary vasodilation”, the “systemic vasodilation induced by BAY 41-2272 in presence of L-NAME” value (awake lambs; [3]) is reported as “abolished” and the “reduction of PAP induced by inhaled NO” value (awake lambs; BAY 41-2272 0.1 mg·kg^−1·h^−1 iv with inhaled NO 2, 10, 20 ppm, P<0.05) is reported as “markedly enhanced”. For the same compound, the “reduction of PVRI induced by inhaled NO” value (awake lambs; [4]) was “markedly enhanced”, the “reduction of PVRI/SVRI induced by inhaled NO” value (awake lambs; [4]) was “markedly enhanced” and the HR (awake lambs; [5]) was “remained unchanged”. For the same compound, the MAP (awake lambs; [5]) was “remained unchanged”, the “central venous pressure (CVP)” value (awake lambs; [5]) was “remained unchanged” and the “reduction of right ventricle stroke work index (RVSWI)” value (awake lambs; BAY 41-2272 infusion with NO inhaled at 10 and 20 ppm vs inhaled NO alone, P<0.05) was “to a greater extent than did inhaled NO alone”. The “cardiac index (CI)” value (awake lambs; [6]) was “increments”, the “pulmonary capillary wedge pressure (PCWP)” value (awake lambs; [6]) was “minor reductions” and the “stroke volume index (SVI)” value (awake lambs; [6]) was “increments”. For the same compound, the “systemic vascular resistance index (SVRI)” value (awake lambs; [6]) was “minor reductions”, the “mean PAP (percent change from pre-treatment pulmonary hypertension value)” value (awake lambs; [7]) was “dose-dependent reductions” and the “pulmonary vascular resistance index (PVRI) (percent change from pre-treatment pulmonary hypertension value)” value (awake lambs; [7]) was “dose-dependent reductions”. For the same compound, the “reductions in mean PAP and PVRI compared with corresponding reductions in MAP and SVRI” value (awake lambs; BAY 41-2272 iv infusion 0.03-0.3 mg·kg^−1·h^−1, p<0.05) was “significantly greater”, the “increase of transpulmonary cGMP release” value (awake lambs; co-administration of BAY 41-2272 and inhaled NO vs inhaled NO alone, P<0.05) was “to a greater extent than did inhaled NO alone” and the “persistence of pulmonary vasodilation (T1/2) after NO was discontinued” value (awake lambs; during BAY 41-2272 infusion vs before, P<0.05) was “greater than that before the infusion”. The “P(A-a)O2” value (awake lambs; [8]) was “reduced”, the PaO2/FiO2 (awake lambs; [8]) was “augmented” and the Qs/Qt (awake lambs; [8]) was “reduced”. For the same compound, the “plasma BAY 41-2272 concentrations” value (awake lambs; during the period of NO administrations, iv infusion 0.1 mg·kg^−1·h^−1) was “remained at a stable level”, the “plasma levels of BAY 41-2272” value ([1]; in vivo) was “remained stable” and the “vasodilator effect on U-46619-induced pulmonary vasoconstriction” value ([1]; inhalation of CO following administration of / in combination with BAY 41-2272) was “no vasodilator effect”.
[C-]#[O+] [CO, carbon monoxide] was tested, and the lung gas exchange ([1]; CO inhalation) was “unchanged”, the systemic hemodynamics ([1]; CO inhalation) was “unchanged” and the “transpulmonary cGMP release” value ([1]; CO inhalation) was “unchanged”. For the same compound, the “vasodilator effect on U-46619-induced pulmonary vasoconstriction” value ([1]; inhalation of CO alone) was “no vasodilator effect”.
[N]=O [NO, Nitric oxide] was tested, and the “T1/2 of return of PAP to baseline pulmonary hypertension after NO was discontinued” value (awake lambs; inhaled NO alone) was less than 1 min, the arterial methemoglobin concentrations (awake lambs; inhaled NO alone) was “no significant changes” and the pulmonary vasodilation (awake lambs; inhaled NO alone 2, 10, 20 ppm, 10 min each) was “dose-dependent, selective pulmonary vasodilation”. For the same compound, the “transpulmonary cGMP release” value (awake lambs; inhaled NO alone 10 and 20 ppm, P<0.01) was “increased”, the “P(A-a)O2” value (awake lambs; [9]) was “reduced” and the PaO2/FiO2 (awake lambs; [9]) was “increased”. For the same compound, the Qs/Qt (awake lambs; [9]) was “reduced”.
With OCc1ccc(-c2nn(Cc3ccccc3)c3ccccc23)o1 [YC-1, 3-(5′-hydroxymethyl-2′-furyl)-1-benzylindazole] the “pulmonary vasodilator response to breathing NO” value ([2]; 4 ppm NO during YC-1 infusion (5 ug/min) vs NO alone) was “greater pulmonary vasodilator response than did breathing NO alone”, the “systemic vasodilation on addition of NO inhalation to YC-1” value ([2]; 4 ppm NO, YC-1 infusion 5 ug/min) was “did not cause systemic vasodilation” and the “pulmonary vasodilation (pulmonary artery pressure)” value [2, 10] was “induced both pulmonary and systemic vasodilation”. For the same compound, the “systemic vasodilation (systemic blood pressure)” value [2, 10] was “induced both pulmonary and systemic vasodilation” and the “duration of pulmonary vasodilation after discontinuing NO inhalation” value ([2]; during YC-1 infusion (5 ug/min) vs before, P<0.01) was “greater during an infusion of YC-1 than before”.
